The source of these data is patent US20260217677A1, “ORGANIC COMPOUNDS AS NLRP3 INHIBITORS” (KODIAK SCIENCES, INC., priority 2023, published 2026).

Bounds are passed on as bounds.

One test deals with IL-1β release in U937 cells after NLRP3 activation. The test is described as follows: IL-1β release inhibition in U937 cells (MSD V-Plex). To be noted: Homo sapiens, U-937, read-out: IL-1β IC50, Table 3; PMA-differentiated U937 cells, 1 μg/mL LPS 3 h, compound 30 min, 10 mM nigericin 1 h.
As usually defined, the IC50 is the point on the concentration scale where inhibition reaches its midpoint. `Cc1cc(N[C@@H]2CCCN(CCN3CCC(O)C3)C2)nnc1-c1ccc(C(F)(F)F)cc1O` (stereo partly drawn) [Compound 2, 1-(2-((R)-3-((6-(2-Hydroxy-4-(trifluoromethyl)phenyl)-5-methylpyridazin-3-yl)amino)piperidin-1-yl)ethyl)pyrrolidin-3-ol]: the concentration for half-maximal inhibition (IC50) was above 500 nM.
The same measure, in the same setting: under `Cc1cc(N[C@@H]2CCCN(CC(=O)N3CC[C@H](O)C3)C2)nnc1-c1ccc(C(F)(F)F)cc1O` [Compound 11, 2-((R)-3-((6-(2-Hydroxy-4-(trifluoromethyl)phenyl)-5-methylpyridazin-3-yl)amino)piperidin-1-yl)-1-((S)-3-hydroxypyrrolidin-1-yl)ethan-1-one] stands below 5 nM.
`Cc1cc(N[C@@H]2CCCN(CC(=O)N3CC4(CCC(O)CC4)C3)C2)nnc1-c1ccc(C(F)(F)F)cc1O` [Compound 17, (R)-2-(3-((6-(2-Hydroxy-4-(trifluoromethyl)phenyl)-5-methylpyridazin-3-yl)amino)piperidin-1-yl)-1-(7-hydroxy-2-azaspiro[3.5]nonan-2-yl)ethan-1-one]: the IC50 was below 5 nM.
Same read-out and setting: under `Cc1cc(N[C@@H]2CCCN(CC3CC4(CC(O)C4)C3)C2)nnc1-c1ccc(C(F)(F)F)cc1O` (stereo partly drawn) [Example 62, (R)-6-((3-((6-(2-Hydroxy-4-(trifluoromethyl)phenyl)-5-methylpyridazin-3-yl)amino)piperidin-1-yl)methyl)spiro[3.3]heptan-2-ol] stands below 5 nM; under `Cc1cc(N[C@@H]2CCCN(CCC3CCC(O)CC3)C2)nnc1-c1ccc(C(F)(F)F)cc1O` (single isomer, unassigned) [Example 72], below 5 nM; under `Cc1cc(N[C@@H]2CCCN(CC(=O)N3CCC(C)(O)CC3)C2)nnc1-c1ccc(C(F)(F)F)cc1O` [Example 55, (R)-2-(3-((6-(2-Hydroxy-4-(trifluoromethyl)phenyl)-5-methylpyridazin-3-yl)amino)piperidin-1-yl)-1-(4-hydroxy-4-methylpiperidin-1-yl)ethan-1-one], below 5 nM.
On to `Cc1cc(N[C@@H]2CCCN(C(=O)C3CC4(CC(O)C4)C3)C2)nnc1-c1ccc(C(F)(F)F)cc1O` (stereo partly drawn) [Example 61, (R)-(3-((6-(2-Hydroxy-4-(trifluoromethyl)phenyl)-5-methylpyridazin-3-yl)amino)piperidin-1-yl) (6-hydroxyspiro[3.3]heptan-2-yl)methanone], for which the IC50 was 5 to 50 nM.
On the same count and under the same terms, under `Oc1cc(C(F)(F)F)ccc1-c1nnc(N[C@@H]2CCCN(CCN3CCC(O)CC3)C2)c2c1CCC2` [Compound 19, 1-{2-[(3R)-3-({4-[2-Hydroxy-4-(trifluoromethyl)phenyl]-5H,6H,7H-cyclopenta[d]pyridazin-1-yl}amino)piperidin-1-yl]ethyl}piperidin-4-ol] stands 50 to 500 nM.
For `Cc1cc(N[C@@H]2CCCN(CC34CC(O)(C3)C4)C2)nnc1-c1ccc(C(F)(F)F)cc1O` [Example 64, (R)-3-((3-((6-(2-Hydroxy-4-(trifluoromethyl)phenyl)-5-methylpyridazin-3-yl)amino)piperidin-1-yl)methyl) bicyclo[1.1.1]pentan-1-ol], the IC50 is below 5 nM.

Staying with this test, now noted: Homo sapiens, U-937, read-out: IL-1β IC50, Table 4; PMA-differentiated U937 cells, 1 μg/mL LPS 3 h, compound 30 min, 10 mM nigericin 1 h.
`Cc1cc(N[C@@H]2CCCN(CC(=O)N3CC(N)C3)C2)nnc1-c1ccc(C(F)(F)F)cc1O` [Example 77, (R)-1-(3-Aminoazetidin-1-yl)-2-(3-((6-(2-hydroxy-4-(trifluoromethyl)phenyl)-5-methylpyridazin-3-yl)amino)piperidin-1-yl)ethan-1-one]: the IC50 fell in the range of 5 to 50 nM.
Same read-out and setting: under `Cc1cc(N[C@@H]2CCCN(CC(=O)N3CCNCC3)C2)nnc1-c1ccc(C(F)(F)F)cc1O` [Example 103, (R)-2-(3-((6-(2-Hydroxy-4-(trifluoromethyl)phenyl)-5-methylpyridazin-3-yl)amino)piperidin-1-yl)-1-(piperazin-1-yl)ethan-1-one] stands 5 to 50 nM; under `Cc1cc(N[C@@H]2CCCN(C3CCN(C(=O)N4CCC(N)CC4)CC3)C2)nnc1-c1ccc(C(F)(F)F)cc1O` [Example 87, (R)-(4-Aminopiperidin-1-yl) (3-((6-(2-hydroxy-4-(trifluoromethyl)phenyl)-5-methylpyridazin-3-yl)amino)-[1,4′-bipiperidin]-1′-yl)methanone], 50 to 500 nM.
Same read-out and setting: under `Cc1cc(N[C@@H]2CCCN(C3CC(N)C3)C2)nnc1-c1ccc(C(F)(F)F)cc1O` (stereo in doubt) [Example 91, 2-(6-(((R)-1-((1s*,3S*)-3-aminocyclobutyl)piperidin-3-yl)amino)-4-methylpyridazin-3-yl)-5-(trifluoromethyl)phenol] stands 5 to 50 nM.
The same measure, in the same setting: under `NC1CC2(CCN(C(=O)CN3CCC[C@@H](Nc4nnc(-c5ccc(C(F)(F)F)cc5O)c5c4COC5)C3)CC2)C1` [Example 101, (R)-1-(2-Amino-7-azaspiro[3.5]nonan-7-yl)-2-(3-((4-(2-hydroxy-4-(trifluoromethyl)phenyl)-5,7-dihydrofuro[3,4-d]pyridazin-1-yl)amino)piperidin-1-yl)ethan-1-one] stands 5 to 50 nM; under `Cc1cc(N[C@@H]2CCCN(CCNCC3COC3)C2)nnc1-c1ccc(C(F)(F)F)cc1O` [Example 108, (R)-2-(4-Methyl-6-((1-(2-((oxetan-3-ylmethyl)amino)ethyl)piperidin-3-yl)amino)pyridazin-3-yl)-5-(trifluoromethyl)phenol], 5 to 50 nM.
For `Cc1cc(N[C@@H]2CCCN(CC(F)(F)CN)C2)nnc1-c1ccc(C(F)(F)F)cc1O` [Example 97, (R)-2-(6-((1-(3-Amino-2,2-difluoropropyl)piperidin-3-yl)amino)-4-methylpyridazin-3-yl)-5-(trifluoromethyl)phenol], the IC50 fell in the range of 5 to 50 nM.
The same measure, in the same setting: under `Cc1cc(N[C@@H]2CCCN(CC(=O)N3C[C@H]4CNC[C@H]4C3)C2)nnc1-c1ccc(C(F)(F)F)cc1O` [Example 112, 1-((3aR,6aS)-Hexahydropyrrolo[3,4-c]pyrrol-2 (1H)-yl)-2-((R)-3-((6-(2-hydroxy-4-(trifluoromethyl)phenyl)-5-methylpyridazin-3-yl)amino)piperidin-1-yl)ethan-1-one] stands 5 to 50 nM.
`Cc1cc(N[C@@H]2CCCN(C3CNC3)C2)nnc1-c1ccc2sccc2c1O` [Example 114, (R)-5-(6-((1-(azetidin-3-yl)piperidin-3-yl)amino)-4-methylpyridazin-3-yl)benzo[b]thiophen-4-ol]: the IC50 was below 5 nM.
The same measure, in the same setting: under `Cc1cc(N[C@@H]2CCCN(CCN)C2)nnc1-c1ccc(C(F)(F)F)cc1O` [Example 78, (R)-2-(6-((1-(2-Aminoethyl)piperidin-3-yl)amino)-4-methylpyridazin-3-yl)-5-(trifluoromethyl)phenol] stands below 5 nM; under `Cc1cc(N[C@@H]2CCCN(C(=O)C(F)(F)CN)C2)nnc1-c1ccc(C(F)(F)F)cc1O` [Example 96, (R)-3-Amino-2,2-difluoro-1-(3-((6-(2-hydroxy-4-(trifluoromethyl)phenyl)-5-methylpyridazin-3-yl)amino)piperidin-1-yl) propan-1-one], 5 to 50 nM; under `Cc1cc(N[C@@H]2CCCN(CC(=O)N3CCC4(CC3)CNC4)C2)nnc1-c1ccc(C(F)(F)F)cc1O` [Example 102, (R)-2-(3-((6-(2-Hydroxy-4-(trifluoromethyl)phenyl)-5-methylpyridazin-3-yl)amino)piperidin-1-yl)-1-(2,7-diazaspiro[3.5]nonan-7-yl)ethan-1-one], 50 to 500 nM.

The test is the same for the next values; noted with them: read-out: IL-1β IC50; Table 3; PMA-differentiated U937 cells, 1 μg/mL LPS 3 h, compound 30 min, 10 mM nigericin 1 h.
For the compound `Cc1cc(N[C@@H]2CCCN(C3CCC(O)CC3)C2)nnc1-c1ccc(C(F)(F)F)cc1O` (single isomer, unassigned) [Example 54], the IC50 is below 5 nM.
